For one data set, the target named is T1, HDAC8 (Homo sapiens, UniProt Q9BY41).
T1 construct: purchased BPS 50008
The experiment in a line: Inhibition of HDAC enzymes, 12-point concentration-response. It is filed as biochemical. On the procedure: (§1) Compounds were tested in a 12-point concentration-response format against 11 HDAC enzymes as outlined in Table 2A. Test compounds were diluted in 100% DMSO using 3-fold dilution steps. The final compound concentration in the assay ranged from 100 μM to 0.565 nM or as requested. Compounds were tested in a single well for each dilution, and the final concentration of DMSO in all assays was kept at 1%. Reference compounds were tested in an identical manner.

The target of a further data set is T2, HDAC9 (Homo sapiens, UniProt Q9UKV0).
T2 construct: purchased BPS 50009
The description is as above. It is filed as biochemical. On the procedure: as §1

A short description of data set [1]: Tumor uptake and retention (FIG. 2). The class given is in vivo. The text has this: Volume of distribution is one of the most important pharmacokinetic properties of a drug candidate and for an anticancer drug can result in increased drug distribution to the tumor.

For orientation: IC50 means the concentration that gives 50% inhibition. The low end stands for inhibition by little substance, the high end for a need for much substance.

Structures are written as SMILES.

T2 sequence (Q9UKV0 1-1066 isoform Q9UKV0-5): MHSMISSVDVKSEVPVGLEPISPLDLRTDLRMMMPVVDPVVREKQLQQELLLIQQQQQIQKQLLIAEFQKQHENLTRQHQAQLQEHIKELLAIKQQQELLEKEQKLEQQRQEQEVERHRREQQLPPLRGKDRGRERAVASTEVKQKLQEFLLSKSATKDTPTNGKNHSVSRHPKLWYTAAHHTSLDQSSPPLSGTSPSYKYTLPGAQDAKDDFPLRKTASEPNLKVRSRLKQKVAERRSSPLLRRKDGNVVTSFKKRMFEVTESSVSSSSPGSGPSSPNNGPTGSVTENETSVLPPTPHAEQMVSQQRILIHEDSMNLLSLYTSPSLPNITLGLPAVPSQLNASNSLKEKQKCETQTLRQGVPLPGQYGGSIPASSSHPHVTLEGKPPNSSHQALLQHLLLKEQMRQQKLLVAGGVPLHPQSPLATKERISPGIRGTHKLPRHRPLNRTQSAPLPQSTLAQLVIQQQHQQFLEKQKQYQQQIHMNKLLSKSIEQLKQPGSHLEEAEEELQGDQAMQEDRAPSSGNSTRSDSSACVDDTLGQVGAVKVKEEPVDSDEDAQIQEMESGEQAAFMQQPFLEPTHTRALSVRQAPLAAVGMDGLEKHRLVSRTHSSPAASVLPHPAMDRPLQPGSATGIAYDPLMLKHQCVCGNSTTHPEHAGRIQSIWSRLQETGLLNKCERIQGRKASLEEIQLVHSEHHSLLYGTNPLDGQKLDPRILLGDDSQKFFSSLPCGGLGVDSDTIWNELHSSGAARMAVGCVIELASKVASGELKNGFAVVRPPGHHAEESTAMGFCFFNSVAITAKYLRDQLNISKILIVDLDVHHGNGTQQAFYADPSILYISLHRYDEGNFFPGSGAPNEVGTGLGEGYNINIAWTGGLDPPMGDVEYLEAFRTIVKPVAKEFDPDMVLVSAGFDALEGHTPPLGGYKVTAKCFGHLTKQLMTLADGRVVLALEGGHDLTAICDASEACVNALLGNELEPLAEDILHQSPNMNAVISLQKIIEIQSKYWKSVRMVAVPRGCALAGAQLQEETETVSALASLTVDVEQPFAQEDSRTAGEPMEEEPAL
T1 sequence (Q9BY41 whole entry): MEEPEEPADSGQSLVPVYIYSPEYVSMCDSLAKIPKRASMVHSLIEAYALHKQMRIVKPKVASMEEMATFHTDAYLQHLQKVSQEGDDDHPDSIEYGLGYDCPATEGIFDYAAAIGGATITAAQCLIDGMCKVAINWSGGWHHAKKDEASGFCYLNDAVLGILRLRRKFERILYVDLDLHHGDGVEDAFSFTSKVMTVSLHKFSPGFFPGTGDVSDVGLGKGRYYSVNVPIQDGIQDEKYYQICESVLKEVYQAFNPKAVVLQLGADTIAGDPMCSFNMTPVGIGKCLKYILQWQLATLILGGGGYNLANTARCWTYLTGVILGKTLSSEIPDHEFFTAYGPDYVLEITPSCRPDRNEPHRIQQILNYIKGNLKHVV

Turning to `CC[C@H](C(=O)Nc1ncc(C(=O)NO)s1)c1ccc(OC)cc1` [#1a, (S)—N-hydroxy-2-(2-(4-methoxyphenyl)butanamido)thiazole-5-carboxamide], the “Fold (1b/1a)” value is recorded as 3.1 on HDAC8 (ratio of IC50, HDAC8) and 1.1 on HDAC9 (ratio of IC50, HDAC9). The “tumor uptake and retention” value in data set [1] is “preferential and significant tumor uptake and retention”.

As for `CC[C@@H](C(=O)Nc1ncc(C(=O)NO)s1)c1ccc(OC)cc1` [#1b, (R)—N-hydroxy-2-(2-(4-methoxyphenyl)butanamido)thiazole-5-carboxamide], the IC50 on HDAC8 (HDAC8) is 416 nM; on HDAC9 (HDAC9), 210 nM.

These data come from patent US11420947B2, “(S)-n-hydroxy-2-(2-(4-methoxyphenyl)butanamido)thiazole-5-carboxamide and pharmaceutically acceptable salts thereof” (TRANSLATIONAL DRUG DEVELOPMENT, LLC, priority 2018, dated 2022).
